Results on 15 compounds are retold here after PubChem BioAssay (NCI).

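Method: 48-hour compound exposure of cells in 96-well plates, five concentrations, linear interpolation of endpoints. Here, GI50 denotes the concentration required for 50% inhibition of growth. TGI: concentration producing complete growth inhibition.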

Among the test systems are A549 NSCLC; MCF7 breast; PC-3 prostate; SNB-75 CNS; EKVX NSCLC; MDA-N; SNB-19 CNS; HL-60(TB) leukemia; HOP-92 NSCLC; SR leukemia.
Common to all, as to assay: inhibition of tumour cell growth, NCI panel, 48 h

With `CCOC(=O)C1CCCCN1C(=O)Cc1c[nH]c2ccccc12` (centres undefined), the TGI in the test on A549 NSCLC, in the test with MCF7 breast, with PC-3 prostate, in the test on SNB-75 CNS, with EKVX NSCLC and with MDA-N was > 100 µM in each case. Further, the values for the TGI in the test on SNB-19 CNS, in the test on HL-60(TB) leukemia and with HOP-92 NSCLC were > 100 µM, 58.6 µM and > 100 µM, respectively.
Turning to `COc1cccc(C(=O)C#Cc2cnc(OC)nc2OC)c1`, the TGI with A549 NSCLC was 21.4 µM; in the test on MCF7 breast, 1.28 µM; in the test on PC-3 prostate it was 2.88 µM; in the test on SNB-75 CNS it was 5.45 µM; in the test on EKVX NSCLC, 3.9 µM; in the test on MDA-N, 3 µM. For the same compound, the values for the TGI in the test with SNB-19 CNS, with HL-60(TB) leukemia and in the test on HOP-92 NSCLC were 34.8 µM, 5.92 µM and 4.28 µM, respectively.
Regarding `CC(C)(C)OC(=O)NCCCCC(N)NC(=O)c1ccccc1` (centres undefined), the TGI in the test with A549 NSCLC, in the test on MCF7 breast, in the test on PC-3 prostate, with SNB-75 CNS, in the test on EKVX NSCLC and in the test with MDA-N was > 100 µM each time. For the same compound, the TGI in the test on SNB-19 CNS and in the test on HOP-92 NSCLC was > 100 µM each time.
On to `c1ccc(N=C2c3ccsc3C(=Nc3ccccc3)c3ccsc32)cc1`, for which the TGI with A549 NSCLC came to 4.1 µM; in the test with MCF7 breast, 4.79 µM; in the test on PC-3 prostate, 9.44 µM; in the test with SNB-75 CNS it was 2.45 µM; in the test with EKVX NSCLC, 4.31 µM; with MDA-N it was 0.554 µM. For the same compound, the TGI came out at 3.88 µM with SNB-19 CNS, 4.2 µM in the test on HL-60(TB) leukemia and 9.37 µM in the test with HOP-92 NSCLC.
Take `C[N+](C)(C)c1ncnc2c1ncn2C1CCCO1` (centres undefined): the TGI in the test on A549 NSCLC, in the test on MCF7 breast, in the test on PC-3 prostate, in the test with SNB-75 CNS, with EKVX NSCLC and with MDA-N was > 100 µM each time. Further, the TGI in the test on SNB-19 CNS, in the test on HL-60(TB) leukemia and in the test with HOP-92 NSCLC was > 100 µM each time.
Take `CN=C(Nc1cccc(C(F)(F)F)c1)SCc1ccc(N=C=S)cc1`: the TGI in the test on SR leukemia stood at 40.4 µM; in the test on A549 NSCLC, 37.5 µM; with PC-3 prostate, 29.4 µM; in the test with SNB-75 CNS, 28 µM; with EKVX NSCLC, 45.1 µM; in the test on MDA-N, 28 µM. Moreover, the TGI in the test with SNB-19 CNS was 28.1 µM; with HL-60(TB) leukemia it was > 100 µM; with HOP-92 NSCLC, 30.5 µM.
As for `O=c1[nH]c(Nc2nc3ccccc3[nH]2)nc(O)c1Cc1ccccc1`, the TGI was > 100 µM with SR leukemia; > 100 µM in the test on A549 NSCLC; > 100 µM with PC-3 prostate; 86.4 µM in the test on SNB-75 CNS; > 100 µM with EKVX NSCLC; > 100 µM in the test on MDA-N. The TGI in the test on SNB-19 CNS was > 100 µM; in the test with HL-60(TB) leukemia it was > 100 µM; in the test on HOP-92 NSCLC it was 63 µM.
Turning to `COc1cc(O)c2c(=O)c(OC)c(-c3ccc(OC)c(OC)c3)oc2c1`, the TGI in the test with A549 NSCLC, in the test on MCF7 breast, in the test with PC-3 prostate, in the test on EKVX NSCLC, with MDA-N and in the test on SNB-19 CNS was > 100 µM in each case. The TGI with HL-60(TB) leukemia was > 100 µM. Besides, the GI50 with MCF7 breast was 45.8 µM; in the test with PC-3 prostate, > 100 µM; in the test with EKVX NSCLC, > 100 µM; with SNB-19 CNS, > 100 µM.
On to `CN(C)CCNC(=O)c1cccc2c(NC(CCC(N)=O)C(=O)O)c3ccccc3nc12` (centres undefined), for which the TGI is > 100 µM with SR leukemia; 64.6 µM in the test on A549 NSCLC; 51.3 µM with MCF7 breast; 23.5 µM in the test on PC-3 prostate; 30.8 µM in the test on SNB-75 CNS; 53.3 µM in the test with EKVX NSCLC. Moreover, the TGI with MDA-N was 31.4 µM; in the test on SNB-19 CNS it was 15.5 µM; in the test with HOP-92 NSCLC, > 100 µM.
For the compound `COc1ccc(C(=O)/C=C/c2ccc(OCC#N)cc2)cc1`, the TGI is 49.5 µM with SR leukemia; > 100 µM in the test with A549 NSCLC; 36.1 µM in the test with MCF7 breast; > 100 µM in the test on PC-3 prostate; > 100 µM in the test with SNB-75 CNS; > 100 µM in the test with EKVX NSCLC. The TGI with MDA-N was > 10 µM; in the test on SNB-19 CNS, > 100 µM; in the test on HOP-92 NSCLC it was 67.4 µM.
On to `Cc1cnc2c(c1C)C(=O)c1ccccc1C2=O`, for which the TGI in the test with SR leukemia, in the test on A549 NSCLC, in the test with MCF7 breast, in the test on PC-3 prostate, with SNB-75 CNS and in the test on EKVX NSCLC was > 100 µM in each case. For the same compound, the TGI in the test with SNB-19 CNS and in the test on HOP-92 NSCLC was > 100 µM each time.
`O=C1CCCC/C1=C\c1ccc(Cl)c(Cl)c1`: the TGI with A549 NSCLC was > 100 µM; in the test on SNB-75 CNS it was 46.8 µM; with EKVX NSCLC it was > 100 µM; in the test on SNB-19 CNS it was 74.3 µM; in the test with HL-60(TB) leukemia it was 48.9 µM.
For `CCCc1[nH]c2ccccc2c1-c1c(CCC)[nH]c2ccccc12`, the TGI was > 100 µM with SR leukemia; > 75.4 µM with A549 NSCLC; 29.9 µM in the test with MCF7 breast; 23.4 µM with PC-3 prostate; 39.7 µM in the test on SNB-75 CNS; 30.9 µM with EKVX NSCLC. The values for the TGI in the test on MDA-N, with SNB-19 CNS and in the test with HOP-92 NSCLC were 24.4 µM, 29.3 µM and 62.4 µM, respectively.
`COC(=O)Cc1c(-c2c(CC(=O)OC)c3ccccc3n2C2OC(COC(C)=O)C(OC(C)=O)C(OC(C)=O)C2OC(C)=O)[nH]c2ccccc12` (centres undefined): the TGI in the test on SR leukemia, with A549 NSCLC, in the test on PC-3 prostate, in the test with EKVX NSCLC, with MDA-N and in the test on SNB-19 CNS was > 100 µM each time. Besides, the TGI in the test on HOP-92 NSCLC is > 100 µM.
On to `COc1cc(Nc2nc3cc(C(F)(F)F)ccc3n3cccc23)cc(OC)c1OC`, for which the TGI with A549 NSCLC, in the test with MCF7 breast, with PC-3 prostate, with SNB-75 CNS, with EKVX NSCLC and in the test with MDA-N was > 100 µM each time. In addition, the TGI in the test on SNB-19 CNS, with HL-60(TB) leukemia and with HOP-92 NSCLC was > 100 µM throughout.
